The values below come from PubChem BioAssay AID322 (DTP/NCI, 2004).

In the test the test system is CD2F1 mice, P388/ADR leukemia ip, median survival T/C. The experiment in a line: NCI In Vivo Anticancer Drug Screen. Data for tumor model P388 Leukemia resistant to Adriamycin; NSC 123127, Developed at Scr 08 (intraperitoneal) in CD2F1 (CDF1) mice. Conditions: endpoint: median survival time, higher = longer survival. The procedure:
The antitumor activity of compounds was measured in mice bearing transplantable tumors. Survival or tumor size were measured and the results are expressed as the measurement made in the treated group (T) divided by the measurement made in the vehicle treated control group (C). The tumor model used in this assay is P388 Leukemia resistant to Adriamycin; NSC 123127, Developed at Scr 08 (intraperitoneal) in CD2F1 (CDF1) mice

Molecules are shown by their SMILES. “And” between values parts separate entries of the source, which are not always exact repeats. Identical values can stand only once. Toxic doses and inconclusive results are not listed.

With `COc1cccc2c1C(=O)c1c(O)c3c(c(O)c1C2=O)C[C@@](O)(C(=O)CO)C[C@@H]3OC1CC(N)C(O)C(C)O1` (stereo partly drawn), the T/C runs as follows: (dose: 0.38 mg/kg/injection, schedule: Q01DX009 (ip), vehicle: saline) 118 % of control; (dose: 0.43 mg/kg/injection, schedule: Q01DX009 (ip), vehicle: saline) 86 % of control; (dose: 0.75 mg/kg/injection, schedule: Q01DX009 (ip), vehicle: saline) 109 % of control; (dose: 0.97 mg/kg/injection, schedule: Q04DX002 (ip), vehicle: saline) 110 % of control; (dose: 0.97 mg/kg/injection, schedule: Q04DX003 (ip), vehicle: saline) 98 % of control; (dose: 0.97 mg/kg/injection, schedule: Q04DX003 (ip), vehicle: water) 100 % of control. Further, the T/C is, setting by setting: (dose: 1.2 mg/kg/injection, schedule: Q01DX009 (ip), vehicle: saline) 98 % of control; (dose: 1.25 mg/kg/injection, schedule: Q01DX001 (ip), vehicle: saline) 118 % of control; (dose: 1.5 mg/kg/injection, schedule: Q01DX009 (ip), vehicle: saline) 108 % of control; (dose: 1.62 mg/kg/injection, schedule: Q04DX002 (ip), vehicle: saline) 111 % of control; (dose: 1.62 mg/kg/injection, schedule: Q04DX003 (ip), vehicle: saline) 107 % of control; (dose: 1.62 mg/kg/injection, schedule: Q04DX003 (ip), vehicle: water) 100 % of control. Also, the T/C (dose: 2.0 mg/kg/injection, schedule: Q01DX009 (ip), vehicle: saline) is 86 % of control; the T/C (dose: 2.16 mg/kg/injection, schedule: Q04DX003 (ip), vehicle: saline) was 100 % of control; the T/C (dose: 2.5 mg/kg/injection, schedule: Q01DX001 (ip), vehicle: water) was 124 % of control; the T/C (dose: 2.7 mg/kg/injection, schedule: Q04DX002 (ip), vehicle: saline) was 117 % of control; the T/C (dose: 2.7 mg/kg/injection, schedule: Q04DX003 (ip), vehicle: saline) was 100 % of control; the T/C (dose: 2.7 mg/kg/injection, schedule: Q04DX003 (ip), vehicle: water) was 101 % of control. The T/C by setting is: (dose: 3.33 mg/kg/injection, schedule: Q01DX009 (ip), vehicle: saline) 90 % of control; (dose: 3.6 mg/kg/injection, schedule: Q04DX003 (ip), vehicle: saline) 102 % of control; (dose: 4.4 mg/kg/injection, schedule: Q01DX001 (ip), vehicle: saline) 120 % of control; (dose: 4.5 mg/kg/injection, schedule: Q04DX002 (ip), vehicle: saline) 120 % of control; (dose: 4.5 mg/kg/injection, schedule: Q04DX003 (ip), vehicle: saline) 102 % of control; (dose: 4.5 mg/kg/injection, schedule: Q04DX003 (ip), vehicle: water) 94 % of control. The T/C by setting is: (dose: 4.5 mg/kg/injection, schedule: Q04DX003 (iv), vehicle: saline) 109 % of control; (dose: 5.0 mg/kg/injection, schedule: Q01DX001 (ip), vehicle: water) 109 % of control; (dose: 6.0 mg/kg/injection, schedule: Q04DX003 (ip), vehicle: saline) 106 % of control; (dose: 6.2 mg/kg/injection, schedule: Q01DX001 (ip), vehicle: saline) 116 % of control; (dose: 6.7 mg/kg/injection, schedule: Q01DX005 (ip), vehicle: saline) 152 % of control; (dose: 6.7 mg/kg/injection, schedule: Q04DX003 (iv), vehicle: saline) 102 % of control. The T/C is 121 % of control (dose: 7.5 mg/kg/injection, schedule: Q04DX002 (ip), vehicle: saline); 92 % of control (dose: 7.5 mg/kg/injection, schedule: Q04DX003 (ip), vehicle: water); 107 % of control (dose: 10.0 mg/kg/injection, schedule: Q01DX001 (ip), vehicle: water); 87 % of control (dose: 10.0 mg/kg/injection, schedule: Q04DX003 (ip), vehicle: saline); 90 % of control (dose: 10.0 mg/kg/injection, schedule: Q04DX003 (iv), vehicle: saline); 109 % of control and 119 % of control (dose: 12.5 mg/kg/injection, schedule: Q01DX001 (ip), vehicle: saline). For the same molecule, the T/C by setting is: (dose: 15.0 mg/kg/injection, schedule: Q01DX005 (ip), vehicle: saline) 107 % of control; (dose: 15.0 mg/kg/injection, schedule: Q04DX003 (iv), vehicle: saline) 88 % of control; (dose: 16.0 mg/kg/injection, schedule: Q04DX003 (ip), vehicle: saline) 90 % of control; (dose: 20.0 mg/kg/injection, schedule: Q01DX001 (ip), vehicle: water) 88 % of control.

In the case of `Nc1ncn(C2OC(CO)C(O)C2O)c(=O)n1` (stereo not drawn), the T/C reads like this: (dose: 30.0 mg/kg/injection, schedule: Q01DX009 (ip), vehicle: saline) 232 % of control and 246 % of control; (dose: 44.0 mg/kg/injection, schedule: Q01DX005 (ip), vehicle: saline) 183 % of control; (dose: 44.0 mg/kg/injection, schedule: Q01DX009 (ip), vehicle: saline) 248 % of control and 261 % of control; (dose: 67.0 mg/kg/injection, schedule: Q01DX005 (ip), vehicle: saline) 189 % of control; (dose: 67.0 mg/kg/injection, schedule: Q01DX009 (ip), vehicle: saline) 253 % of control and 280 % of control; (dose: 100.0 mg/kg/injection, schedule: Q01DX005 (ip), vehicle: saline) 210 % of control. Further, the T/C is 263 % of control and 270 % of control (dose: 100.0 mg/kg/injection, schedule: Q01DX009 (ip), vehicle: saline); 206 % of control (dose: 150.0 mg/kg/injection, schedule: Q01DX005 (ip), vehicle: saline); 277 % of control and 296 % of control (dose: 150.0 mg/kg/injection, schedule: Q01DX009 (ip), vehicle: saline); 207 % of control (dose: 200.0 mg/kg/injection, schedule: Q01DX005 (ip), vehicle: saline).

In the case of `COc1cccc2c1C(=O)c1c(O)c3c(c(O)c1C2=O)C[C@@](O)(C(=O)CO)C[C@@H]3OC1CC(N2CCOCC2C#N)C(O)C(C)O1` (stereo partly drawn), the T/C reads like this: (dose: 9.38 micrograms/kg/injection, schedule: Q04DX003 (ip), vehicle: saline with Tween-80) 173 % of control and 175 % of control; (dose: 15.0 micrograms/kg/injection, schedule: Q04DX003 (iv), vehicle: saline + alcohol) 107 % of control; (dose: 22.0 micrograms/kg/injection, schedule: Q04DX003 (iv), vehicle: saline + alcohol) 99 % of control; (dose: 33.0 micrograms/kg/injection, schedule: Q04DX003 (iv), vehicle: saline + alcohol) 88 % of control; (dose: 37.5 micrograms/kg/injection, schedule: Q04DX003 (ip), vehicle: saline with Tween-80) 160 % of control.

For the molecule `COc1ccc(C(C)c2cc3c(cc2OC)OCO3)cc1` (stereo not drawn), the T/C is, setting by setting: (dose: 12.5 mg/kg/injection, schedule: Q01DX005 (ip), vehicle: saline with Tween-80) 105 % of control; (dose: 25.0 mg/kg/injection, schedule: Q01DX005 (ip), vehicle: saline with Tween-80) 109 % of control; (dose: 50.0 mg/kg/injection, schedule: Q01DX005 (ip), vehicle: saline with Tween-80) 119 % of control.
